Paper PMC9146500, “New Quinoline–Urea–Benzothiazole Hybrids as Promising Antitubercular Agents: Synthesis, In Vitro Antitubercular Activity, Cytotoxicity Studies, and In Silico ADME Profiling” (Pharmaceuticals, 2022)
In brackets after ≈: the same amount, converted by molar mass. Like-named read-outs stand apart in the source and are kept apart here.

Experiments:
[1] = cited from earlier work
[2] = test system: Mycobacterium tuberculosis H37Rv pMSp12::GFP; test: microbe, parasite or virus in culture; type: cell-based; settings: Mtb H37Rv
HepG2 cells = test: MTT cytotoxicity assay; settings: HepG2, 24 h, MTT; for IC20: concentration at which cells retain 80% viability, extrapolated from the dose–response curve
[3] = test system: Mycobacterium tuberculosis H37Rv pMSp12::GFP; test: microbe, parasite or virus in culture; type: cell-based; settings: Mycobacterium tuberculosis, 168 h, Mtb H37Rv, protein-rich media, 7 days, read-out: MIC90 7H9/ADC/GLU/Tw 7 Days; for MIC90: H37RV
MTT cytotoxicity assay = settings: human; for IC20 at 24 h: IC20, HepG2, 24 h, MTT, concentration at which cells retain 80% viability, extrapolated from the dose–response curve
[4] = Mycobacterium tuberculosis, H37RV, both media (CAS and ADC) or medium not given, read-out: MIC90
[5] = Mycobacterium tuberculosis, H37RV, 168 h, protein-poor media, 7 days, read-out: MIC90 7H9/CAS/GLU/Tx 7 Days

Structure (SMILES)	clog P [1]	MIC90 ([2]; protein-poor media, 7 days, read-out: MIC90 7H9/CAS/GLU/Tx 7 Days) [µM]	IC20 (HepG2 cells) [µM]	MIC90 cell viability (HepG2 cells; viability at the compound's MIC90 in the CAS assay, extrapolated from the curve) [%]	MIC ([2]; Mycobacterium tuberculosis, 168 h, protein-poor media, 7 days, read-out: MIC90 7H9/CAS/GLU/Tx 7 Days) [µM]	MIC90 [2, 4] [µM]	MIC [3] [µM]	viability at 24 h (MTT cytotoxicity assay) [%]	IC20 at 24 h (MTT cytotoxicity assay) [µM]	melting point [°C]	MIC90 [2, 5] [µM]	MIC90 [3] [µM]
CC(C)=CCC/C(C)=C/CNCCNC1C2CC3CC(C2)CC1C3 (stereo not shown) [SQ-109]	6.82											
O=C(NCCCCNc1ccnc2cc(Cl)ccc12)Nc1nc2ccc(Br)cc2s1 [Compound 6p]		7.812 (≈ 3.94 µg/mL)	2.13	56								
O=C(NCCNc1ccnc2cc(Cl)ccc12)Nc1nc2ccc(Br)cc2s1 [Compound 6g, 1-(6-Bromobenzo[d]thiazol-2-yl)-3-(2-((7-chloroquinolin-4-yl)amino)ethyl)urea]			4.26		8.89 (≈ 4.24 µg/mL)	8.89 to 14.9 (≈ 4.24 to 7.1 µg/mL)	14.9 (≈ 7.1 µg/mL)	48	7.47			
O=C(NCCCCCCNc1ccnc2cc(Cl)ccc12)Nc1nc2ccc(F)cc2s1 [Compound 6t, 1-(6-((7-Chloroquinolin-4-yl)amino)hexyl)-3-(6-fluorobenzo[d]thiazol-2-yl)urea]						6.97 to 31.2 (≈ 3.29 to 14.7 µg/mL)		92	12.9	256 to 259	6.97 (≈ 3.29 µg/mL)	31.2 (≈ 14.7 µg/mL)
Cc1ccc2nc(NC(=O)NCCCNc3ccnc4cc(Cl)ccc34)sc2c1 [Compound 6k, 1-(3-((7-Chloroquinolin-4-yl)amino)propyl)-3-(6-methylbenzo[d]thiazol-2-yl)urea]								93	42.7	234 to 239	31.2 (≈ 13.3 µg/mL)	62.3 (≈ 26.5 µg/mL)
CC(CNc1ccnc2cc(Cl)ccc12)NC(=O)Nc1nc2ccc(Cl)cc2s1 (stereo not shown) [Compound 6y, 1-(1-((7-Chloroquinolin-4-yl)amino)propan-2-yl)-3-(6-chlorobenzo[d]thiazol-2-yl)urea]								78	2.22	301 to 304	2.33 (≈ 1.04 µg/mL)	8.46 (≈ 3.77 µg/mL)
Cc1ccc2nc(NC(=O)NC(C)CNc3ccnc4cc(Cl)ccc34)sc2c1 (stereo not shown) [Compound 6x, 1-(1-((7-Chloroquinolin-4-yl)amino)propan-2-yl)-3-(6-methylbenzo[d]thiazol-2-yl)urea]								96	16.2	229 to 231	7.22 (≈ 3.07 µg/mL)	10.3 (≈ 4.41 µg/mL)
